Results on ten compounds are retold here after patent publication US20230069886A1, “AROMATIC SULPHONAMIDES DERIVATIVES THAT INHIBITS PDI A3, THEIR SYNTHESIS AND USE” (Uniwersytet Jagiellonski, priority 2020, published 2023).

The test system of data set [1] is MDA-MB-231. Kind of data set: Sulforhodamine B antiproliferative assay, 72 h, normal/hypoxia, MDA-MB-231. Type of data set: cell-based, human. Conditions: 72 hours exposition; for IC50: Homo sapiens, MDA-MB-231. How it is done: (§1) Anticancer activity of selected compounds of invention, PDI A3-inhibitors has been also tested in vitro in antiproliferative assay in normoxic and hypoxic conditions as well in estrogen-stimulated cancer cells. In the experiment, cells were seeded on 96-well plates (Sarstedt, Germany) in appropriate culture medium at a density of 10^5 cells/mL 24 h before adding the tested compounds. Cells were treated with each compound in four concentrations in the range 0.1-100 μg/mL. […] After 72 h of compound treatment at 37° C., 5% CO2 humid atmosphere and in wo different oxygen level conditions: 21%—normal and <1%—hypoxia. In some experiments the MDA-MB-231 and MCF-7 cells were seeded with or without 200 nM estradiol and after 24 h the tested compounds were added. A previously described sulforhodamine B antiproliferative assay was used with minor modifications (Skehan P et al., 1990). Briefly, cells were fixed with 50 μL/well of 50% (w/v) trichloroacetic acid (Avantor Performance Materials, Gliwice, Poland). After 1 h incubation, plates were washed several times with tap water and 50 μL of 0.4% (w/v) solution of sulforhodamine B (Sigma-Aldrich, Germany) in 1% (v/v) acetic acid (Avantor Performance Materials, Gliwice, Poland) was added to each well. After 30 min incubation at room temperature, unbound dye was washed out with 1% (v/v) acetic acid, whereas bound dye was solubilized with 10 mM unbuffered TRIS (Avantor Performance Materials, Gliwice, Poland) solution. The entire procedure was performed using a BioTek EL-406 washing station (BioTek Instruments, USA). After additional 30 min, absorbance was read using a Biotek Hybrid H4 reader (BioTek Instruments, USA) at 540 nm wavelength. MTT assay was used alternatively for HL-60 cell line and in the experiment in which estrogens are added (specified in the table legend). Absorbance was measured using a Biotek Hybrid H4 reader at 570 nm wavelength for MTT assay.
(§2) Compounds at each concentration were tested in triplicate in a single experiment and each experiment was repeated at least three times independently. Results are presented as mean IC50±SD.
In general terms: Sulforhodamine B stains cellular protein and so reports cell mass.

The test system of data set [2] is MCF-7. The data set is described as follows: Sulforhodamine B antiproliferative assay, 72 h, normal/hypoxia, MCF-7. Format: cell-based, human. Conditions: for IC50 [μg/ml] MCF-7 hypoxia / IC50 [μg/ml] MCF-7 normal / IC50: 72 hours exposition; for IC50: Homo sapiens, MCF7. The method, then: as §1, §2
For a further data set, the system named is HT-29. The data set is described as follows: Sulforhodamine B antiproliferative assay, 72 h, HT-29. To be noted: normal (21% of oxygen), 72 hours exposition. Type of data set: cell-based, human. The method, then:
as §1, §2

In data set [3] the test system is CaCo-2. The data set is described as follows: Sulforhodamine B antiproliferative assay, 72 h, Caco-2. Format: cell-based, human. To be noted: normal (21% of oxygen), 72 hours exposition.
Method: In the experiment, cells were seeded on 96-well plates (Sarstedt, Germany) in appropriate culture medium at a density of 10^5 cells/mL 24 h before adding the tested compounds. Cells were treated with each compound in four concentrations in the range 0.1-100 μg/mL. […] Briefly, cells were fixed with 50 μL/well of 50% (w/v) trichloroacetic acid (Avantor Performance Materials, Gliwice, Poland). After 1 h incubation, plates were washed several times with tap water and 50 μL of 0.4% (w/v) solution of sulforhodamine B (Sigma-Aldrich, Germany) in 1% (v/v) acetic acid (Avantor Performance Materials, Gliwice, Poland) was added to each well. After 30 min incubation at room temperature, unbound dye was washed out with 1% (v/v) acetic acid, whereas bound dye was solubilized with 10 mM unbuffered TRIS (Avantor Performance Materials, Gliwice, Poland) solution. […] After additional 30 min, absorbance was read using a Biotek Hybrid H4 reader (BioTek Instruments, USA) at 540 nm wavelength.
The subject of data set [4] is MDA-MB-231. Kind of data set: MTT antiproliferative assay, 48 h, MDA-MB-231. Format: cell-based, human. Conditions: for IC50: Homo sapiens, MDA-MB-231, 48-hour exposition, read-out: Cytotoxicity, IC50, μM MDA-MB-231. How it is done: (§3) Anticancer activity of compounds of invention, PDI A3-inhibitors has been tested in vitro in classical antiproliferative assay in various cancer cells lines. Monolayer tumor cell lines MDA-MB-231 (human mammary breast adenocarcinoma), MCF-7 (human breast adenocarcinoma, estrogen-positive), HT-1080 (human fibrosarcoma) and Caco-2 (human colon adenocarcinoma) were cultured in standard medium DMEM (Dulbecco's modified Eagle's medium) (“Sigma”) supplemented with 10% foetal bovine serum (“Sigma”). About 2000-4000 cells per well (depending on line nature) were placed in 96-well plates and after 24 h compounds were added to the wells. Untreated cells were used as a control. The plates were incubated for 48 h, 37° C., 5% CO2. The number of surviving cells was determined using 3-(4,5-dimethylthiazol-2-yl)-2,5-diphenyltetrazolinium bromide (MTT). MTT-test: after incubating culture medium was removed and 200 μL fresh medium with 20 μL MTT (2 mg/mL in HBSS) was added in each well of the plate. After incubation (3 hr., 37° C., 5% CO2), the medium with MTT was removed and 200 μL DMSO were added at once to each sample. The samples were tested at 540 nm on Thermo Scientific Multiskan EX microplate photometer. The half-maximal inhibitory concentration (IC50) of each compound was calculated using Graph Pad Prism® 3.0.
(In general: Tetrazolium dyes change colour on reduction, which living cells bring about.)

In data set [5] the test system is CaCo-2. Kind of data set: MTT antiproliferative assay, 48 h, Caco-2. Format: cell-based, human. How it is done:
as §3

Data set [6] concerns MCF-7. The data set is described as follows: MTT antiproliferative assay, 48 h, MCF-7. Format: cell-based, human. The method, then:
as §3

The target in the next data set is T1, PDI A3 (Homo sapiens, UniProt P30101).
T1 construct: purchased Mybiosource; host or cells: E. coli
T1 sequence (P30101 25-505): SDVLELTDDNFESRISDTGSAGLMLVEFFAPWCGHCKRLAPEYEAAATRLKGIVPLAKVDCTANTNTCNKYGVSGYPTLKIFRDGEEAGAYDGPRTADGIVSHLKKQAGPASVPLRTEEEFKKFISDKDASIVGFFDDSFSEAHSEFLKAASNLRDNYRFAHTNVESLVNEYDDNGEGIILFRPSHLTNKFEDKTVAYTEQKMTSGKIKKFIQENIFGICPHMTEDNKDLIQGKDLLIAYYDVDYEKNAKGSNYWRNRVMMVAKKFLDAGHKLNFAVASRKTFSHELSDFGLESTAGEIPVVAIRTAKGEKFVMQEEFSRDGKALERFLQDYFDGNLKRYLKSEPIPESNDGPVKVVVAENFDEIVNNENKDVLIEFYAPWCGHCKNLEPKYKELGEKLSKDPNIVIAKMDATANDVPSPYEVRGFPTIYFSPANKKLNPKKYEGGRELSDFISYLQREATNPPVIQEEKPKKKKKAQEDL
The data set is described as follows: PDI A3 inhibition, insulin turbidimetric assay. Format: biochemical. Conditions: 10 ug/ml PDI A3, incubated 60 min at 37° C., turbidity at 650 nm; read-out: Inhibition of PDI A3 (EC 50). The method, then:
The inhibitory effects compounds of invention on activity of PDIA3 was assess based on the insulin turbidimetric assay. Enzymatic activity of PDIA3 was confirmed by measuring the turbidity increase at 650 nm due to insulin reduction. The assay mixture was prepared by addition 10 ug/ml PDI A3 (E. coli recombinant protein; Mybiosource), […] phosphate buffer (pH7.6), 1 mM EDTA, 0.087 mM DTT and with or without tested compound and was incubated for 60 min, at 37° C. Reaction was started by addition of insulin and DTT. Final concentration of insulin and DTT in assay mixture were 0.15 mMv and 0.174 mMv, respectively. Turbidity was detected at 650 nm against reference samples without PDJs. The measurements were performed at 650 nm using 120-s recordings.

SMILES strings stand for the structures. ≈ marks a conversion by molar mass, not a printed value.

By melting point is commonly meant the temperature, or range, at which the solid turns liquid.

As to `N.N.[Cl][Pt][Cl]` [Cisplatin], in the data set on MDA-MB-231 [1] (hypoxia (<1% of oxygen)), the “IC50 [μg/ml] MDA-MB-231 hypoxia” value was 3.1 ± 0.9 µg/mL. Also, the “IC50 [μg/ml] MDA-MB-231 normal” value with MDA-MB-231 [1] (normal (21% of oxygen)) is 3.2 ± 0.5 µg/mL. Besides, the “IC50 [μg/ml] MCF-7 hypoxia” value with MCF-7 [2] (hypoxia (<1% of oxygen)) is 1.3 ± 0.5 µg/mL. In addition, in the data set on MCF-7 [2] (normal (21% of oxygen)), the “IC50 [μg/ml] MCF-7 normal” value came out at 1.8 ± 0.3 µg/mL. Also, the “IC50 [μg/ml] HT-29 normal” value in the data set on HT-29 worked out at 2.82 ± 0.6 µg/mL.
As to `COc1ccc(N2C(=O)/C(=C\c3ccc([N+](=O)[O-])s3)SC2=S)cc1` [CCF642], in the data set on MDA-MB-231 [1] (hypoxia (<1% of oxygen)), the “IC50 [μg/ml] MDA-MB-231 hypoxia” value came to 0.3 ± 0.2 µg/mL (≈ 0.793 µM). Moreover, in the data set on MDA-MB-231 [1] (normal (21% of oxygen)), the “IC50 [μg/ml] MDA-MB-231 normal” value turned out to be 0.3 ± 0.1 µg/mL (≈ 0.793 µM). The “IC50 [μg/ml] MCF-7 hypoxia” value with MCF-7 [2] (hypoxia (<1% of oxygen)) was determined as 0.6 ± 0.6 µg/mL (≈ 1.59 µM). Besides, the “IC50 [μg/ml] MCF-7 normal” value with MCF-7 [2] (normal (21% of oxygen)) amounted to 0.7 ± 0.5 µg/mL (≈ 1.85 µM). In addition, in the data set with HT-29, the “IC50 [μg/ml] HT-29 normal” value worked out at 0.4 ± 0.05 µg/mL (≈ 1.06 µM). In the data set on CaCo-2 [3], the “IC50 [μg/ml] Caco-2 normal” value came to 0.4 ± 0.1 µg/mL (≈ 1.06 µM).
Turning to `CN(C)c1ccc2c(S(=O)(=O)N3CC3C(N)=O)cccc2c1` (centres unmarked) [Compound C-3459, 1-[[6-(Dimethylamino)-1-naphthyl]sulfonyl]aziridine-2-carboxamide], the melting point was in the range of 197 to 199 °C. Besides, the “Cytotoxicity, IC50, μM MDA-MB-231” value with MDA-MB-231 [4] (48-hour exposition) is listed as “n.e”. Further, the “Cytotoxicity, IC50, μM CaCo-2” value in the data set on CaCo-2 [5] (48-hour exposition) was “n.e”. In addition, in the data set on MCF-7 [6] (48-hour exposition), the “Cytotoxicity, IC50, μM MCF-7” value is given as “n.e”. Besides, the EC50 at PDI A3 came out at 130 µM.
In the case of `COC(=O)C1CN1S(=O)(=O)c1ccc2cc(OC)ccc2c1` (centres unmarked) [Compound C-3327, Methyl 1-[(6-methoxy-2-naphthyl)sulfonyl]aziridine-2-carboxylate], the IC50 in the data set with CaCo-2 [5] (Homo sapiens, Caco-2, 48-hour exposition, read-out: Cytotoxicity, IC50, μM CaCo-2) worked out at 150 ± 10 µM.
Consider `CCCCCCc1ccc(S(=O)(=O)N2CC2C(=O)N2CCOCC2)cc1` (centres unmarked) [Compound C-3517, [1-(4-Hexylphenyl)sulfonylaziridin-2-yl]-morpholino-methanone], for which the IC50 in the data set with MDA-MB-231 [4] was determined as 12 ± 1 µM.
Still for that read-out and setting: in the case of `COC(=O)C1CN1S(=O)(=O)c1ccccc1C` (centres unmarked) [Compound C-3320, Methyl 1-(o-tolylsulfonyl)aziridine-2-carboxylate] it was 380 ± 15 µM.
As to `O=C(C1CC1)N1CCN(Cn2sc3ccccc3c2=O)CC1` [LOC14], in the data set with MDA-MB-231 [1] (hypoxia (<1% of oxygen)), the “IC50 [μg/ml] MDA-MB-231 hypoxia” value is 2.6 ± 0.5 µg/mL (≈ 8.19 µM). In addition, the “IC50 [μg/ml] MDA-MB-231 normal” value in the data set with MDA-MB-231 [1] (normal (21% of oxygen)) stood at 2.8 ± 0.4 µg/mL (≈ 8.82 µM). The “IC50 [μg/ml] MCF-7 hypoxia” value in the data set with MCF-7 [2] (hypoxia (<1% of oxygen)) came out at 3.9 ± 0.3 µg/mL (≈ 12.3 µM). In addition, in the data set on MCF-7 [2] (normal (21% of oxygen)), the “IC50 [μg/ml] MCF-7 normal” value was 4.4 ± 0.9 µg/mL (≈ 13.9 µM). In the data set on HT-29, the “IC50 [μg/ml] HT-29 normal” value came to 12.6 ± 8.4 µg/mL (≈ 39.7 µM). For the same compound, the “IC50 [μg/ml] Caco-2 normal” value with CaCo-2 [3] is 9.1 ± 3.4 µg/mL (≈ 28.7 µM).
As to `COC(=O)C1CN1S(=O)(=O)c1ccc2cc(N(C)C)ccc2c1` (centres unmarked) [Compound C-3397, Methyl 1-[[6-(dimethylamino)-2-naphthyl]sulfonyl]aziridine-2-carboxylate], the IC50 with MDA-MB-231 [4] came out at 38 ± 2 µM.
`CN(C)C(=O)C1CN1S(=O)(=O)c1cccc2cc(N(C)C)ccc12` (centres unmarked) [Compound C-3377, 1-[[6-(Dimethylamino)-1-naphthyl]sulfonyl]-N,N-dimethylaziridine-2-carboxamide]: the IC50 in the data set with MCF-7 [6] (Homo sapiens, MCF7, 48-hour exposition, read-out: Cytotoxicity, IC50, μM MCF-7) was 4.8 ± 0.1 µM. In addition, at PDI A3, the EC50 stood at 4.3 µM.
Turning to `NC(=O)C1CN1S(=O)(=O)c1ccc([N+](=O)[O-])cc1` (centres unmarked) [Compound C-3216, 1-(4-Nitrophenyl)sulfonylaziridine-2-carboxamide], the IC50 in the data set on MDA-MB-231 [1] (hypoxia (<1% of oxygen), read-out: IC50 [μg/ml] MDA-MB-231 hypoxia) was found to be 6.2 ± 3.7 µg/mL (≈ 22.9 µM); in the data set with MDA-MB-231 [1] (normal (21% of oxygen), read-out: IC50 [μg/ml] MDA-MB-231 normal), 5 ± 1.4 µg/mL (≈ 18.4 µM); in the data set on MCF-7 [2] (hypoxia (<1% of oxygen), read-out: IC50 [μg/ml] MCF-7 hypoxia), 3.6 ± 0.3 µg/mL (≈ 13.3 µM); in the data set with MCF-7 [2] (normal (21% of oxygen), read-out: IC50 [μg/ml] MCF-7 normal), 3.7 ± 0.4 µg/mL (≈ 13.6 µM); with HT-29 (Homo sapiens, HT-29, read-out: IC50 [μg/ml] HT-29 normal), 5.6 ± 0.9 µg/mL (≈ 20.6 µM); with CaCo-2 [3] (Homo sapiens, Caco-2, read-out: IC50 [μg/ml] Caco-2 normal) it was 4.5 ± 0.8 µg/mL (≈ 16.6 µM). The “Antiproliferative effect, normoxic versus hypoxic conditions” value in the data set with MCF-7 [2] (MCF-7 and MDA-MB-231, Table 3) was “comparable”.
